From ChEMBL document CHEMBL2094269, “WEHI/Eskitis Trypanosoma b. brucei screening data”
Values joined by “and” are separate entries in the source; they are usually repeats but may differ in a detail not shown here. Identical values can stand only once.

Legend:
[1] = DNDI: Cytotoxicity against human MRC-5 lung fibroblast cells.; details: IC50
[2] = test system: Trypanosoma brucei brucei; experiment: microbe, parasite or virus in culture; format: functional, organism-based, STIB 795
Description: DNDI: Inhibition of Human African Trypanosomiasis (HAT), STIB 795, in vitro

SMILES | IC50 [1] | IC50 ([2]; Trypanosoma brucei, STIB 795) | IC50 [2]
Cn1c(Cc2ccccc2)nn(C2CC(=O)C3OCC2O3)c1=S (stereo not given) | > 41.7 µM | 4.91 µM | –
C/C(=N\NC(=O)CCCNc1cccc(C)c1)c1ccccn1 | > 10.4 µM | 3.96 µM | –
COc1ccc(OCC(=O)N/N=C(\C)c2ccccn2)cc1 | > 20.8 µM | 5.26 µM | –
Oc1c(Cl)cc(CN2CCOCC2)c2cccnc12 | > 20.8 µM | 0.956 µM | 1.12 µM
CC(Cc1ccco1)NC(=O)c1cccc(NC(=O)C2=CSCCO2)c1 (stereo not given) | > 41.7 µM | 5.79 µM | –
Fc1ccc(C(=CCCn2ccnc2)c2ccc(F)cc2)cc1 | 7.02 µM | 0.327 µM | –
Clc1ccc(CCNCc2c[nH]c3ccccc23)c(Cl)c1 | > 20.8 µM | 5.33 µM | –
Cc1cc(N2CCN(C)CC2)c2[nH]c3ccccc3c2c1 | 7.26 µM | 0.748 µM | –
O=C1CC(n2nnn(-c3ccccc3Cl)c2=S)C2COC1O2 (stereo not given) | > 41.7 µM | 4.6 µM | –
O=C(Nc1ccc(Cl)c(-c2nc3ncccc3o2)c1)c1ccco1 | > 41.7 µM | 0.17 µM | –
COc1ccc(-c2cs/c(=N\CC3CCNCC3)n2-c2ccccc2)cc1 | > 20.8 µM | 5.74 µM | –
O=C(NC(c1ccccc1F)c1ccc2cccnc2c1O)c1ccccc1 (stereo not given) | > 4.17 µM | 6.12 µM | –
CN1CCN(C2Cc3ccccc3Sc3ccc(N(C)C)cc32)CC1 (stereo not given) | > 41.7 µM | 5.04 µM | –
Cc1cccc(CN2CCN(Cc3c[nH]c4ccccc34)CC2)c1 | > 20.8 µM | 5.24 µM | –
Cc1ccc2c(c1)C(=O)C(CN1CCOCC1)CO2 (stereo not given) | > 20.8 µM | 2.17 µM | –
O=C(O/N=C(/NCc1ccccc1)c1ccc(Cl)cc1)c1cccs1 | > 41.7 µM | 0.47 µM | –
O=C(NO)c1sc2ccccc2c1Cl | > 41.7 µM | 3.76 µM | –
CCN(CC)c1ccc(C(Nc2ccccn2)c2ccc3cccnc3c2O)cc1 (stereo not given) | > 20.8 µM | 8.71 µM | –
Cc1ccsc1/C=C(\C(=O)NCc1cccnc1)S(=O)(=O)c1ccccc1 | > 20.8 µM | 5.29 µM | –
CCN(CC)CCCCN(CCc1ccccc1)Cc1ccc(O)cc1 | > 41.7 µM | 4.55 µM | –
O=C(/C=C/c1ccccc1Cl)Nc1ccc2ccccc2c1 | > 41.7 µM | 6.12 µM | –
COc1ccc(C(=O)O/N=C(\N)c2ccc(OC)c(OC)c2)c(OC)c1 | > 41.7 µM | 1.33 µM | –
O=C(NC(c1ccc2c(c1)OCO2)c1ccc2cccnc2c1O)c1ccccc1 (stereo not given) | > 4.17 µM | 4.91 µM | –

SMILES | IC50 [1] | IC50 ([2]; Trypanosoma brucei, STIB 795) | IC50 [2]
CC(C)CC[n+]1ccccc1C=Cc1ccc(N(C)C)cc1 | > 10.4 µM | 0.734 µM | –
CCCCCOc1ccc(NC(=O)C(=O)NC2CC(C)(C)NC(C)(C)C2)cc1 | > 41.7 µM | 4.86 µM | –
CCCCC(=O)NC(c1ccc(N(C)C)cc1)c1ccc2cccnc2c1O (stereo not given) | > 20.8 µM | 5.84 µM | –
CC(C)(C)OC(=O)N/N=C\c1ccc(-c2cccc(Cl)c2)o1 | > 41.7 µM | 7.35 µM | –
Cc1cc2c(c(=O)o1)C(c1ccc(Br)s1)C(C#N)=C(N)O2 (stereo not given) | > 41.7 µM | – | 5.05 µM and > 10.4 µM
Cc1ccccc1OCCn1c(=N)n(Cc2ccccc2F)c2ccccc21 | > 20.8 µM | 4.95 µM | –
CC(=O)O[C@H]1CCC2C3CCC4=CC(=O)CC[C@]4(C)C3C(=O)C[C@@]21C (stereo not given in full) | 6.4 µM | 0.39 µM | –
CCCc1c(CC)c(=N)c2ccccc2n1C | > 41.7 µM | 4.55 µM | –
COC(=O)c1ccccc1OCCCON1C(N)=NC(N)=NC1(C)C | > 0.42 µM | 0.351 µM | –
NCC12CC3CC(C1)CC(c1ccc(Br)cc1)(C3)C2 | 6.72 µM | 0.687 µM | –
CCCc1cc(=O)[nH]c(-n2nc(C)cc2NC(=O)c2ccc(OC)c(OC)c2)n1 | > 41.7 µM | 5.28 µM | –
CC(C)(C)c1ccc(/C(=N\NC(=N)N)c2ccc(Cl)cc2)cc1 | > 20.8 µM | 1.1 µM | –
c1ccc2cc3c(NCCCNC4CCCCC4)ccnc3cc2c1 | 4.93 µM | 0.294 µM | –
CC1(C)CC(=O)C/C(=N\NC(=O)c2sc3ccccc3c2Cl)C1 | > 41.7 µM | 2.2 µM | –
COc1ccc(Nc2nc3ccccc3c(=O)o2)cc1 | > 20.8 µM | 0.435 µM | –
CC1CC2=C(C(=O)c3ccccc3C2=O)C(C)O1 (stereo not given) | > 41.7 µM | 5.59 µM | –
O=C(CCN1CCCCC1)Nc1ccc(OC(F)(F)Cl)cc1 | > 41.7 µM | 4.27 µM | 3.9 µM
CC[n+]1c(/C=C2\Sc3cc(NC(C)=O)ccc3N2C)ccc2ccccc21 | > 41.7 µM | 5.41 µM | –
CNC1=C(N(C(C)=O)c2ccc(Br)cc2)C(=O)c2ccccc2C1=O | 4.88 µM | 0.515 µM | –
CCOc1cc2c(cc1OCC)C(c1ccc(Cl)cc1)NCC2 (stereo not given) | > 20.8 µM | 5.64 µM | –
OC12C[C@@H](C3CO[C@@H]1O3)n1nnnc1N2 | > 20.8 µM | 4.84 µM | –
CC1CCN(C(c2cc(C(C)(C)C)c(O)c(C(C)(C)C)c2)c2ccccn2)CC1 (stereo not given) | > 41.7 µM | 5.7 µM | –
NCCNCCC=C(c1ccc(F)cc1)c1ccc(F)cc1 | > 20.8 µM | 0.265 µM | –

SMILES | IC50 [1] | IC50 ([2]; Trypanosoma brucei, STIB 795) | IC50 [2]
CN(C)S(=O)(=O)c1ccc(C(=O)Nc2nnc(-c3ccc(F)cc3)o2)cc1 | > 41.7 µM | 4.94 µM | –
COc1ccccc1C(NC(=O)C1CCCCC1)c1ccc2cccnc2c1O (stereo not given) | > 41.7 µM | 10.9 µM | –
C[n+]1ccccc1C=C1C=CN(c2ccc(Cl)cc2)C=C1 | > 4.17 µM | 0.028 µM | –
COc1cc(C(=O)Nc2nc(-c3ccccn3)cs2)cc(OC)c1OC | > 41.7 µM | 4.6 µM | –
CC(C)(C)c1cc(/C=N/Nc2nc3ccccc3[nH]2)cc(C(C)(C)C)c1O | > 20.8 µM | 0.485 µM | –
O=C(c1ccc(Cl)cc1)C(CN1CCOCC1)c1ccccc1 (stereo not given) | > 20.8 µM | 3.11 µM | 4 µM
COc1c(S(=O)(=O)c2ccc(C)c(F)c2)cnc2ccc(Cl)cc12 | > 20.8 µM | 3.1 µM | –
CN(C)c1cc[n+](Cc2c(Cl)cccc2Cl)cc1 | > 41.7 µM | ≤ 0.044 µM | –
Oc1nncc(N/N=C/c2ccccn2)n1 | > 20.8 µM | 5.64 µM | –
CC(Cc1ccccc1)[n+]1[cH-]/c(=N\C(=N\Cc2ccccc2)N(C)C)on1 (stereo not given) | > 41.7 µM | 0.83 µM | –
COc1ccc(/C=N/NC(=O)C(OC)c2ccccc2)c(OC)c1OC (stereo not given) | > 4.17 µM | 2.27 µM | –
COc1ccc(C(=O)O/N=C(\N)Cc2ccc(Cl)cc2)c(OC)c1 | > 20.8 µM | 0.104 µM | –
NCCNCCOC(c1ccc(Cl)cc1)c1ccc(Cl)cc1 | 5.61 µM | 0.239 µM | –
CCCC(=O)NC(c1ccccc1Cl)c1cc(Cl)c2cccnc2c1O (stereo not given) | > 20.8 µM | 1.58 µM | –
CCc1cccc(-n2nnnc2N2CCN(C(=O)Nc3ccc(F)cc3)CC2)c1 | > 41.7 µM | 4.16 µM | –
COC(=O)C1=C(OC)C(=O)OC12C=CC(=O)C=C2 | 1.06 µM | 0.524 µM | –
CC(C)(C)C(N)CCc1ccc(Cl)cc1Cl (stereo not given) | > 41.7 µM | 5.49 µM | –
Clc1cc2c(c3ncccc13)OCN(CCC1=CCCCC1)C2 | > 20.8 µM | 1.05 µM | –
CCOC(=O)C1CCCN(Cc2cc(Cl)c3cccnc3c2O)C1 (stereo not given) | > 4.17 µM | 5.09 µM | –
N=C(N)N/N=C1/C(=O)Nc2ccc(Br)cc21 | > 41.7 µM | – | –
CNC(c1ccccc1)C1c2cccc3cccc(c23)C1O (stereo not given) | – | > 10.4 µM | –
